Data taken from US20060100431A1, “Biologically active compounds” (Amura Therapeutics Limited, priority 2002, published 2006).

Tests used:
Wild-type cruzipain = Wild-type cruzipain (Trypanosoma cruzi, UniProt P25779); assay: Trypanosoma cruzi cruzipain peptidase activity assay (Ki); format: biochemical; conditions: read-out: Ki, inhibitors of cruzain and cruzipains
How it was run: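 Native cruzipain from T. cruzi Dm28 epimastigotes, 2.5 nM, in 100 mM sodium phosphate pH 6.75 with 1 mM EDTA and 10 mM L-cysteine, 25 °C, DMSO <1%. Rates taken from continuous fluorogenic substrate read; Ki by regression assuming reversible pure-competitive inhibition.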

CPB2.8ΔCTE = target: T1, CPB2.8ΔCTE (Leishmania mexicana, UniProt P36400); assay: Leishmania mexicana cysteine protease B (CPB) peptidase activity assay (Ki); format: biochemical; conditions: Ki, inhibitors of Leismania mexicana CPB protease
T1 construct: Wild-type recombinant CPB without the C-terminal extention (i.e. CPB2.8ΔCTE); Dr. Jeremy Mottram (Wellcome Centre for Molecular Parasitology, University of Glasgow)
Procedure: Unless otherwise stated, all general chemicals and biochemicals were purchased from either the Sigma Chemical Company, Poole, Dorset, U.K or from Fisher Scientific UK, Loughborough, Leicestershire, U.K. Absorbance assays were carried out in flat-bottomed 96-well plates (Spectra; Greiner Bio-One Ltd., Stonehouse, Gloucestershire, U.K.) using a SpectraMax PLUS384 plate reader (Molecular Devices, Crawley, U.K.). Fluorescence high throughput assays were carried out in either 384-well microtitre plates (Corning Costar 3705 plates, Fisher Scientific) or 96-well ‘U’ bottomed Microfluor W1 microtitre plates (Thermo Labsystems, Ashford, Middlesex, U.K.). Fluorescence assays were monitored using a SpectraMax Gemini fluorescence plate reader (Molecular Devices). For substrates employing either a 7-amino-4-methylcoumarin (AMC) or a 7-amino-4-trifluoromethylcoumarin (AFC) fluorophore, assays were monitored at an excitation wavelength of 365 nm and an emission wavelength of 450 nm and the fluorescence plate reader calibrated with AMC. For substrates employing a 3-amino-benzoyl (Abz) fluorophore, assays were monitored at an excitation wavelength of 310 nm and an emission wavelength of 445 nm; the fluorescence plate reader calibrated with 3-amino-benzamide (Fluka). Unless otherwise indicated, all the peptidase substrates were purchased from Bachem UK, St Helens, Merseyside, UK. Substrates utilizing fluorescence resonance energy transfer methodology (i.e. FRET-based substrates) were synthesized at Incenta Limited using published methods (Atherton & Sheppard, Solid Phase Peptide Synthesis, IRL Press, Oxford, U.K, 1989) and employed Abz (2-aminobenzoyl) as the fluorescence donor and 3-nitro-tyrosine [Tyr(NO2)] as the fluorescence quencher (Meldal, M. and Breddam, K., Anal. Biochem, 195, 141-147, 1991). Hydroxyethylpiperazine ethanesulfonate (HEPES), tris-hydroxylmethyl aminomethane (tris) base, bis-tris-propane and all the biological detergents (e.g. CHAPS, zwittergents, etc.) were purchased from CN Biosciences UK, Beeston, Nottinghamshire, U.K. Glycerol was purchased from Amersham Pharmacia Biotech, Little Chalfont, Buckinghamshire, U.K. Stock solutions of substrate or inhibitor were made up to 10 mM in 100% dimethylsulfoxide (DMSO) (Rathburns, Glasgow, U.K.) and diluted as appropriately required. In all cases the DMSO concentration in the assays was maintained at less than 1% (vol./vol.).
Assay protocols were based on literature precedent (Table 4; Barrett, A. J., Rawlings, N. D. and Woessner, J. F., 1998, Handbook of Proteolytic Enzymes, Academic Press, London and references therein) and modified as required to suit local assay protocols. Enzyme was added as required to initiate the reaction and the activity, as judged by the change in fluorescence upon conversion of substrate to product, was monitored over time. All assays were carried out at 25±1° C.
Wild-type recombinant CPB without the C-terminal extention (i.e. CPB2.8ΔCTE; Sanderson, S. J., et. al., Biochem. J., 347, 383-388, 2000) was obtained from Dr. Jeremy Mottram (Wellcome Centre for Molecular Parasitology, The Anderson College, University of Glasgow, Glasgow, U.K.). Activity assays were carried out in 100 mM sodium acetate; pH 5.5 containing 1 mM EDTA; 200 mM NaCl and 10 mM DTT (Alves, L. C., et. al., Mol. Biochem. Parasitol, 116, 1-9, 2001) using 0.25 nM enzyme. […] The rate of conversion of substrate to product was derived from the slope of the increase in fluorescence monitored continuously over time.
The apparent inhibition constant (Ki) for each compound was determined on the basis that inhibition was reversible and occurred by a pure-competitive mechanism. The Ki values were calculated, from the dependence of enzyme activity as a function of inhibitor concentration, by direct regression analysis (Prism v 3.02) using Equation 2 (Cornish-Bowden, A., 1995.). [formula]

Sequence of Wild-type cruzipain (P25779 whole entry): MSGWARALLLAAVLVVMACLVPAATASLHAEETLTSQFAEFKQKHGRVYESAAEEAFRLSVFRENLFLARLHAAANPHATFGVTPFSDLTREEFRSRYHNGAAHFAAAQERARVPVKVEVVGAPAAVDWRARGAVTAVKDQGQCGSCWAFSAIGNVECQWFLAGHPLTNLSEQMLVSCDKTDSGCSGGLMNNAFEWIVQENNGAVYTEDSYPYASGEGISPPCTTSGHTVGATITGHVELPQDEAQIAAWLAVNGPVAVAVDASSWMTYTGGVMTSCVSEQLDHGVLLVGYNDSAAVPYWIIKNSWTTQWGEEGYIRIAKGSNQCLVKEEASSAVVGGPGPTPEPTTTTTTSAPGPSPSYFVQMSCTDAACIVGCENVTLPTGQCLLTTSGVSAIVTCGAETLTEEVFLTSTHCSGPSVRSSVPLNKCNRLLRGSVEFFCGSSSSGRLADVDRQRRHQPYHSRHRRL
T1 sequence (P36400 126-343, stated change not applied): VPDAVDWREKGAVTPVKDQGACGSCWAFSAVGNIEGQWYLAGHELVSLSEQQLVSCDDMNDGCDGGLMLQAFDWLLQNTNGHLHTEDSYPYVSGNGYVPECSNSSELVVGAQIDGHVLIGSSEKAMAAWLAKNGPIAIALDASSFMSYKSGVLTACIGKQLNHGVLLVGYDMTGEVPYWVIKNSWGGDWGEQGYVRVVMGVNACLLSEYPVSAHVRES

SMILES: CS(=O)(=O)c1ccccc1C(=O)N1CC(=O)[C@@H]2[C@H]1CCN2C(=O)[C@H](Cc1ccc(O)cc1)NC(=O)c1cccc(CN)c1 [Example 332, (3aR,6aS)-3-Aminomethyl-N-{(1S)-1-(4-hydroxy-benzyl)-2-[4-(2-methanesulfonyl-benzoyl)-6-oxo-hexahydro-pyrrolo[3,2-b]pyrrole-1-yl]-2-oxo-ethyl}-benzamide]
- Ki (Wild-type cruzipain): < 5 µM
- Ki (CPB2.8ΔCTE): < 5 µM

SMILES: CC(C)C[C@H](NC(=O)c1ccc(N(C)C)cc1)C(=O)N1CC[C@@H]2[C@H]1C(=O)CN2C(=O)C1CCCC1 [Example 134, (3aR,6aS)-N-[(1S)-1-(4-Cyclopentanecarbonyl-6-oxo-hexahydro-pyrrolo[3,2-b]pyrrole-1-carbonyl)-3-methyl-butyl]-4-dimethylamino-benzamide]
- Ki (Wild-type cruzipain): < 5 µM
- Ki (CPB2.8ΔCTE): < 5 µM

SMILES: CC(C)C[C@H](NC(=O)c1ccc(N(C)C)cc1)C(=O)N1CC[C@@H]2[C@H]1C(=O)CN2C(=O)C1CC=CCC1 (stereo partly drawn) [Example 138, (3aR,6aS)-N-{(1S)-1-[4-(Cyclohex-3-enecarbonyl)-6-oxo-hexahydro-pyrrolo[3,2-b]pyrrole-1-carbonyl]-3-methyl-butyl}-4-dimethylamino-benzamide]
- Ki (Wild-type cruzipain): < 5 µM
- Ki (CPB2.8ΔCTE): < 5 µM

SMILES: CC(C)C[C@H](NC(=O)c1ccc(N(C)C)cc1)C(=O)N1CC[C@@H]2[C@H]1C(=O)CN2C(=O)c1ccc(C(F)(F)F)cc1 [Example 69, (3aR,6aS)-4-Dimethylamino-N-{(1S)-3-methyl-1-[6-oxo-4-(4 trifluoromethyl-benzoyl)-hexahydro-pyrrolo[3,2-b]pyrrole-1-carbonyl]-butyl}-benzamide]
- Ki (Wild-type cruzipain): < 5 µM
- Ki (CPB2.8ΔCTE): < 5 µM

SMILES: Cc1cc(C(=O)N2CC(=O)[C@@H]3[C@H]2CCN3C(=O)[C@H](CC(C)C)NC(=O)c2ccc(N(C)C)cc2)ccc1F [Example 115, (3aR,6aS)-4-Dimethylamino-N-{(1S)-1-[4-(4-fluoro-3-methyl-benzoyl)-6-oxo-hexahydro-pyrrolo[3,2-b]pyrrole-1-carbonyl]-3-methyl-butyl}-benzamide]
- Ki (Wild-type cruzipain): < 5 µM
- Ki (CPB2.8ΔCTE): < 5 µM

SMILES: CC(C)C[C@H](NC(=O)c1ccc(N(C)C)cc1)C(=O)N1CC[C@@H]2[C@H]1C(=O)CN2C(=O)c1cc2ccccc2o1 [Example 101, (3aR,6aS)-N-{(1S)-1-[4-(Benzofuran-2-carbonyl)-6-oxo-hexahydro-pyrrolo[3,2-b]pyrrole-1-carbonyl]-3-methyl-butyl}-4-dimethylamino-benzamide]
- Ki (Wild-type cruzipain): < 5 µM
- Ki (CPB2.8ΔCTE): < 5 µM

SMILES: CC(C)C[C@H](NC(=O)c1ccc(C(C)(C)C)cc1)C(=O)N1CC[C@@H]2[C@H]1C(=O)CN2C(=O)c1cccc(Oc2ccccc2)c1 [Example 24, (3aR,6aS)-4-tert-Butyl-N-{(1S)-3-methyl-1-[6-oxo-4-(3-phenoxy-benzoyl)-hexahydro-pyrrolo[3,2-b]pyrrole-1-carbonyl]-butyl}-benzamide]
- Ki (Wild-type cruzipain): < 5 µM
- Ki (CPB2.8ΔCTE): < 5 µM

SMILES: CC(C)C[C@H](NC(=O)c1ccc(N(C)C)cc1)C(=O)N1CC[C@@H]2[C@H]1C(=O)CN2C(=O)[C@@H](N)CC(C)C [Example 150, (3aR,6aS)-N-{(1S)-1-[4-((2S)-2-Amino-4-methyl-pentanoyl)-6-oxo-hexahydro-pyrrolo[3,2-b]pyrrole-1-carbonyl]-3-methyl-butyl}-4-dimethylamino-benzamide]
- Ki (Wild-type cruzipain): < 5 µM
- Ki (CPB2.8ΔCTE): < 5 µM

SMILES: NCc1cccc(C(=O)N[C@@H](Cc2ccc(O)cc2)C(=O)N2CC[C@@H]3[C@H]2C(=O)CN3C(=O)c2csc3ccccc23)c1 [Example 331, (3aR,6aS)-3-Aminomethyl-N-[(1S)-2-[4-(benzo[b]thiophene-3-carbonyl)-6-oxo-hexahydro-pyrrolo[3,2-b]pyrrole-1-yl]-1-(4-hydroxy-benzyl)-2-oxo-ethyl]-benzamide]
- Ki (Wild-type cruzipain): < 5 µM
- Ki (CPB2.8ΔCTE): < 5 µM
